Source: patent US20250129012A1, “ANTI-INFLAMMATORY AND ANALGESIC COMPOUNDS AND USE THEREOF” (JIANGSU ATOM BIOSCIENCE AND PHARMACEUTICAL CO., LTD., priority 2021, published 2025)
Like-named read-outs stand apart in the source and are kept apart here. Marks after values point to notes of the source that are not given here.

Legend:
[1] = test system: gouty arthritis rats (sodium urate, right ankle and knee joint cavities); assay: Pharmacodynamics experiment B on gouty arthritis rats: gait score; assay type: in vivo, SD rats; details: for Gait Score: dose 0.6 mg/kg gavage, mean; for Gait versus model group, in words: compounds 0.6 mg/kg, colchicine 0.6 and 1.2 mg/kg
Experimental: (§1) Compounds 12, 16, 19, 30, 34, 36, 38, 40, 44, 48, 49, 52, 58, 69, 83, 98, 102, 119, 121, and 122 were prepared by grinding with 0.5% CMC-Na prior to administration and formulated into suspensions of appropriate concentration (0.12 mg/mL) for gavage, with an administered dose of 0.5 mL/100 g.
(§2) 240 SD rats, males, were acclimatized for one week and weighed 180-220 g. […] The dose of each compound group was 0.6 mg/kg. The compounds in each group were prepared into the corresponding concentration suspension, and the volume of administration was 10 mL/kg.
(§3) 250 mg of sodium urate were added to 9 mL of saline, and 1 mL of Tween-80 solution was added, the resulting mixture was heated and stirred to formulate 10 mL of sodium urate solution. The rats were grasped and fixed, and 0.2 mL of sodium urate solution was injected into the right ankle and knee joint cavities respectively to establish gouty arthritis rat model.
(§4) Before modeling, positive drug and tested compounds were pre-administered for 7 days, once a day, and modeling was performed on day 8, and drug administration by gavage continued for 3 days after modeling.
Gait was scored according to the modified gait grading criteria introduced by Coderre et al. The gait of each rat was observed before and 2 h, 4 h, 8 h, 10 h, 24 h and 48 h after modeling and graded scoring was performed. The gait grading criteria were as follows: 0 point, normal walking; 1 point, slight lameness, the lower limbs were slightly bent; 2 points: moderate lameness, the lower limbs just touched the ground; 3 points, severe lameness, the lower limbs left the ground, and walked on three feet. The mean score of each group was calculated and compared with that of the model group.
(§5) Each experimental data was expressed as the mean, and intergroup comparisons were examined for significance using the ANOVA-Dunnett T-test, with P<0.05 as the significance indicator.

[2] = test system: gouty arthritis rats (sodium urate, right ankle and knee joint cavities); assay: Pharmacodynamics experiment B on gouty arthritis rats: ankle swelling rate; assay type: in vivo, SD rats; details: Rattus norvegicus, po, read-out: Swelling rate (ankle)
Experimental: as §1, §2, §3, §4
Before modeling and 2 h, 4 h, 8 h, 10 h, 24 h and 48 h after modeling, the circumference of the right ankle joint was measured using a soft ruler or the volume change at the ankle was measured (volumetric method), and the swelling degree and swelling rate of ankle joint were calculated:
Swelling degree (mm)=measured circumference (mm)−baseline circumference (mm)
Swelling rate (%)=swelling degree (mm)/baseline circumference (mm)×100%
as §5

[3] = In vivo pharmacokinetics in SD rats; details: Sprague-Dawley, rat, in vivo
Experimental: Compound stock solution preparation: an appropriate amount of solid powder of the compounds were weighed separately, a certain amount of DMSO was added and 20 mg/mL of stock solution was obtained under vortex ultrasound.
Preparation of test compound for gavage: an appropriate amount of compound stock solution was taken by pipette, a certain amount of Solutol HS15 solution was added, the mixture was vortexed for 1 minute, then a certain amount of saline was added, and 1 mg/mL of solution was obtained after mixing well.
Preparation of test compounds for intravenous injection: an appropriate amount of compound stock solution was taken by pipette separately, a certain amount of Solutol HS15 solution was added, the mixture was vortexed for 1 minute, then a certain amount of physiological saline was added and a solution of 0.5 mg/mL was obtained after mixing well.
The animals were fasted overnight before administration by gavage, and food was given 4 hours after administration, during which they were free to drink. Two groups were set for each test compound, intravenous injection group and oral administration group, and the dose and mode of administration were shown in Table 12 below.
The blood samples were centrifuged at 4° C. for 5 min at 2,000 g to separate the plasma. The plasma samples were analyzed by LC/MS/MS to detect the concentration of each test compound in the plasma samples.
The parameters related to the […] were obtained by calculations with WinNonlin® Professional software.

SMILES | Gait Score ([1]; 2 h) | Gait Score ([1]; 4 h) | Gait Score ([1]; 8 h) | Gait Score ([1]; 10 h) | Gait Score ([1]; 24 h) | Gait Score ([1]; 48 h) | Gait versus model group, in words [1] | change in vivo at 0.6 mg/kg ([2]; 2 h) [%] | change in vivo at 0.6 mg/kg ([2]; 4 h) [%] | change in vivo at 0.6 mg/kg ([2]; 8 h) [%] | change in vivo at 0.6 mg/kg ([2]; 10 h) [%] | change in vivo at 0.6 mg/kg ([2]; 24 h) [%] | change in vivo at 0.6 mg/kg ([2]; 48 h) [%] | F ([3]; 10 mg/kg) [%] | AUC(0-inf) ([3]; iv, 1 mg/kg) [ng·h/mL] | MRT inf ([3]; iv, 1 mg/kg) [min] | Vd ([3]; iv, 1 mg/kg) [L/kg] | clearance ([3]; iv, 1 mg/kg) [mL/min/kg] | half-life ([3]; iv, 1 mg/kg) [min] | AUC(0-inf) ([3]; po, 10 mg/kg) [ng·h/mL] | other results
COc1cc2c(c(OC)c1OC)-c1ccc(N3CCCC3=O)c(=O)cc1[C@@H](NC(C)=O)CC2 [Compound 52, (S)—N-[1,2,3-trimethoxy-9-oxo-10-(2-oxo-pyrrolidin-1-yl)-5,6,7,9-tetrahydrobenzo[a]heptalen-7-yl]acetamide] | 0 | 0 | 0* | 0* | 0 | 0 | significant improvement in gait occurred at different time points | 11 | 9.83 | 11.8 | 30.2 | 22 | 7.88 | – | – | – | – | – | – | – | –
[2H]C([2H])([2H])NC(=O)c1ccc2c(cc1=O)[C@@H](NC(C)=O)CCc1cc(OC)c(OC)c(OC)c1-2 [Compound 56, (S)-7-acetamido-1,2,3-trimethoxy-N-(trideuterio)methyl-9-oxo-5,6,7,9-tetrahydrobenzo[a]heptalen-10-carboxamide] | – | – | – | – | – | – | – | – | – | – | – | – | – | 62.3 | 597 | 34.9 | 0.977 | 28.7 | 35.4 | 3720 | Cmax ([3]; po, 10 mg/kg): 1640 ng/mL; MRT inf ([3]; po, 10 mg/kg): 132 min; Tmax ([3]; po, 10 mg/kg): 25 min; half-life ([3]; po, 10 mg/kg): 76.2 min
COc1cc2c(c(OC)c1OC)-c1ccc(C(=O)N3CCOCC3)c(=O)cc1[C@@H](NC(C)=O)CC2 [Compound 83, (S)—N-{1,2,3-trimethoxy-10-(morpholine-4-carbonyl)-9-oxo-5,6,7,9-tetrahydrobenzo[a]heptalen-7-yl}acetamide] | 0 | 0 | 0* | 0* | 0 | 0 | significant improvement in gait occurred at different time points | 8.31 | 10.4 | 16.6 | 21.1 | 26.3 | 15.3 | – | – | – | – | – | – | – | –
CNC(=O)c1ccc2c(cc1=O)[C@@H](NC(=O)C1CC1)CCc1cc(OC)c(OC)c(OC)c1-2 [Compound 102, (S)-7-(3-cyclopropylcarbonylamino)-1,2,3-trimethoxy-N-methyl-9-oxo-5,6,7,9-tetrahydrobenzo[a]heptalen-10-carboxamide] | 0 | 0 | 0.27 | 0.09* | 0 | 0 | – | 14.1 | 13.6 | 14.4 | 19.3 | 16.7 | 9.4 | – | – | – | – | – | – | – | –
[2H]C([2H])([2H])Oc1cc2c(c(OC)c1OC([2H])([2H])[2H])-c1ccc(C(=O)NC)c(=O)cc1[C@@H](NC(C)=O)CC2 [Compound 124, (S)-7-acetamido-1-methoxy-2,3-bis(trideuteromethoxy)-N-methyl-9-oxo-5,6,7,9-tetrahydrobenzo[a] heptalen-10-carboxamide] | – | – | – | – | – | – | – | – | – | – | – | – | – | 44.7 | 756 | 39.1 | 0.864 | 22.3 | 38.6 | 3380 | Cmax ([3]; po, 10 mg/kg): 2260 ng/mL; MRT inf ([3]; po, 10 mg/kg): 103 min; Tmax ([3]; po, 10 mg/kg): 20 min; half-life ([3]; po, 10 mg/kg): 82.8 min
